One data set relates to BVDV (strain NADL). Description: BVDV cell protection assay (CPA). The format is cell-based. The settings on record: Bovine viral diarrhea virus isolates and strains, MOI of BVDV 0.04.
A further data set relates to CVB-2. Description: organism not typed. It is filed as cell-based, Coxsackie B-2 virus. The settings on record: read-out: EC50 CVB-2.
The next data set concerns DENV-2. Description: microbe, parasite or virus in culture. The settings on record: Dengue virus, DENV2, read-out: composite EC50 range. The format is cell-based.
In the next data set the test system is HCMV. Description: Antiviral activity, HCMV (HFF). The format is cell-based. The note with it: Human betaherpesvirus 5.
For the next data set, the system named is Parainfluenza type 3. Description: Antiviral activity, Parainfluenza type 3 (MA-104). It is filed as cell-based. The note with it: MA104.
The next data set has as its system RSV type A. Description: Antiviral activity, RSV type A (MA-104). The format is cell-based. The settings on record: human respiratory syncytial virus, MA104.
The subject of the next data set is Punta Toro A. Briefly: organism not typed. It is filed as cell-based. The note with it: LLC-MK2.
Data set [1] has as its system MDCK, canine kidney cells. Description: Cytotoxicity, MDCK. The format is cell-based.
The subject of a further data set is HIV. The format is cell-based.
A further data set relates to HBV. It is filed as cell-based.
Another data set concerns HepG2 cells. Briefly: Transmission electron microscopy of mitochondrial ultrastructure.

SMILES strings stand for the structures. In brackets after ≈: the same amount, converted by molar mass. Bounds are passed on as bounds.

Broadly, the EC50 is the concentration needed to bring the measured effect to its halfway point. One may read the CC50 as the concentration giving 50% cytotoxicity. High values mean better tolerance by the cells, low ones harm at low concentration.

Turning to `CC1(O)C(O)C(CO)OC1n1ccc(N)nc1=O` (stereo not drawn) [mCyd, 4-Amino-1-(3,4-dihydroxy-5-hydroxymethyl-3-methyl-tetrahydro-furan-2-yl)-1H-pyrimidine-2-one], the EC50 in the data set with BVDV (strain NADL) is 500 nM; in the data set with CVB-2, 11 µM; with DENV-2 it was 59 to 95 µM; in the data set with HCMV it was 9.9 to 15.6 µg/mL (≈ 38.5 to 60.6 µM); in the data set with Parainfluenza type 3, over 200 µM; in the data set on RSV type A, over 200 µM. In the data set with Punta Toro A, the EC50 is over 200 µM. Also, the CC50 was over 200 µM in [1] (Influenza A/H1N1 line), 45 to 65 µM in [1] (Influenza A/H3N2 line) and 55 to 140 µM in data set [1] (Influenza B line). Further, the “activity against HIV” value in the data set with HIV is listed as “no activity”. The “activity against HBV” value in the data set with HBV is given as “no activity”. Moreover, the “Electron Microscopy, Lipid Droplet Form.” value in the data set with HepG2 cells (10 μM, 14 days) was “Negative”. Moreover, in the data set with HepG2 cells (10 μM, 14 days), the “Electron Microscopy, Mito. Morphol.” value was “Normal^d”. Also, the “cells in which 1 to 2 mitochondria out of an average of 25 appeared enlarged” value in the data set on HepG2 cells (14 days of exposure to 10 μM) stood at 17%.

The values are drawn from patent US7625875B2 (priority 2002, dated 2009).
